Data reported in publication PMC10861852, “Loss of activation by GABA in vertebrate delta ionotropic glutamate receptors” (Proceedings of the National Academy of Sciences of the …, 2024).
Where a chain is given by its changes, count along the chain named.

Experiments:
AcaGluD = target: T1, AcaGluD (Acanthaster planci, UniProt A0A8B7XXR5); experiment: Two-electrode voltage clamp, ligand-gated currents in oocytes; assay type: cell-based; details: for inhibition of GABA-gated current / currents elicited when applied alone / enhancement of glutamate-gated currents: 100 μM; for inhibition of GABA-gated current: coapplied with ~EC30 GABA concentration; for enhancement of glutamate-gated currents: n = 5
T1 sequence (A0A8B7XXR5 24-958): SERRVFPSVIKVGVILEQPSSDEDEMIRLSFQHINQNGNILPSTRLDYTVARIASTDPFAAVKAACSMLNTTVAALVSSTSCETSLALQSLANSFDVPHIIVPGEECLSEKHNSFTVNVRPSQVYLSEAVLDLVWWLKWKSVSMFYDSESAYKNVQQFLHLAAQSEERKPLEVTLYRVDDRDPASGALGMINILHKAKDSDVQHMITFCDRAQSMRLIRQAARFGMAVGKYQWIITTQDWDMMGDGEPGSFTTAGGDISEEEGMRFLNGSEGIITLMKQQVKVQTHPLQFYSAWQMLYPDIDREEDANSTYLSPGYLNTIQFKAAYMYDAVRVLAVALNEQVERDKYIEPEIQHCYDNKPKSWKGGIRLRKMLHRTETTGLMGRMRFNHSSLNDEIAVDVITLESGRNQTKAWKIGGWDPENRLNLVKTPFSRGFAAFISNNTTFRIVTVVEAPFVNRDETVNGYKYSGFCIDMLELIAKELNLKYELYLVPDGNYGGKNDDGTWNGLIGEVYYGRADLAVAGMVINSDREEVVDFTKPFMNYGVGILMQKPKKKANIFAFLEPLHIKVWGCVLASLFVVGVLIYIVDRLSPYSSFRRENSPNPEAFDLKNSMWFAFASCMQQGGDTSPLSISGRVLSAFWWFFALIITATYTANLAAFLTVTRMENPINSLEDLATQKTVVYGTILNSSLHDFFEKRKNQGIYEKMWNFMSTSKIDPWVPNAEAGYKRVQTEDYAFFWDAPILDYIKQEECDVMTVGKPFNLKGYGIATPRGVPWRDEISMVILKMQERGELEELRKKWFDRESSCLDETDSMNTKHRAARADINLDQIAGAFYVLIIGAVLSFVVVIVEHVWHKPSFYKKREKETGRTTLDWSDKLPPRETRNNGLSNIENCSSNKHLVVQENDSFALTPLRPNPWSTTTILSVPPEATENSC

WT RatGluD2 = target: T2, WT RatGluD2 (Rattus norvegicus, UniProt Q63226); experiment: Two-electrode voltage clamp in oocytes; assay type: cell-based; details: n = 4
T2 construct: expressed in transfected cells; host or cells: Xenopus laevis oocytes injected with mRNA
T2 sequence (Q63226 24-1007): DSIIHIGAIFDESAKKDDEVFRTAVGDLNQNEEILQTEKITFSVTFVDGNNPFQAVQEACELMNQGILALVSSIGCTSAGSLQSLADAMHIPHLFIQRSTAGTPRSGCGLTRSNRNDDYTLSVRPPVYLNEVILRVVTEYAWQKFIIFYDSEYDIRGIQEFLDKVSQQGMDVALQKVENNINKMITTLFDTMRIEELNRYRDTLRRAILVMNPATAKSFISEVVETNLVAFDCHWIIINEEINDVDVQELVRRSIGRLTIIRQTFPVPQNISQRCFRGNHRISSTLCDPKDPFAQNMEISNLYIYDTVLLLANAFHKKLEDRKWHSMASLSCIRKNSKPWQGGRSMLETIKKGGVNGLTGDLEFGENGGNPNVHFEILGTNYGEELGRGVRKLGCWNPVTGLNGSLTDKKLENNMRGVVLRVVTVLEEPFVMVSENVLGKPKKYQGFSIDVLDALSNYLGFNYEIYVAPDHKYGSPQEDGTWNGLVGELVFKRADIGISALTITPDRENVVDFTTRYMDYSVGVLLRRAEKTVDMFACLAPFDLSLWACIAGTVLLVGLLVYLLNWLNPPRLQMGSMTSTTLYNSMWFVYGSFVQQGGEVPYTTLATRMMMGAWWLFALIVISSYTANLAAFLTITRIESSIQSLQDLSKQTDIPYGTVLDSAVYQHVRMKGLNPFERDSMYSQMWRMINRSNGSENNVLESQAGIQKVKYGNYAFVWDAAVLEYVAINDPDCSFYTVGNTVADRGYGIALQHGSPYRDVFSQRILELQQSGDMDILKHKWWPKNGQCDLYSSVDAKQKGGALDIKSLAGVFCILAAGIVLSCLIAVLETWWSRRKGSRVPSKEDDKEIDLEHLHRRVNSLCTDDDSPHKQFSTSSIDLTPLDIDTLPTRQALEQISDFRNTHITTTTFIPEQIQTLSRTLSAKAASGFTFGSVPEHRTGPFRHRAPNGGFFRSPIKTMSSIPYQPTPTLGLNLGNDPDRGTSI

RatGluD2^Lc = target: T3, RatGluD2^Lc (Rattus norvegicus, UniProt Q63226, A654T); experiment: Two-electrode voltage clamp, inhibition of constitutive current in oocytes; details: each n = 4
T3 sequence (Q63226 24-1007 A654T): T2 sequence (Q63226 24-1007) with A631T
From the text: (C) Left panels, example recordings of oocytes expressing A654T lurcher-mutant RatGluD2 (RatGluD2Lc) in response to indicated AMPA iGluR antagonists and D-serine. Dashed line, zero current baseline. Right panel, % inhibition at different oocytes (dots) and resulting means (columns).

RatGluD2^9x = target: T4, RatGluD2^9x (Rattus norvegicus, UniProt Q63226, A686S/D753Q/K694R/N720P/N763K/P806D/Q786M/R787V/Y613F); experiment: Two-electrode voltage clamp, responses to ligands in mutant-expressing oocytes; assay type: cell-based; details: ligands 30 mM
T4 construct: expressed in transfected cells; host or cells: Xenopus laevis oocytes injected with mRNA
T4 sequence (Q63226 24-1007 Y613F/A686S/K694R/N720P/D753Q/N763K/Q786M/R787V/P806D): T2 sequence (Q63226 24-1007) with Y590F, A663S, K671R, N697P, D730Q, N740K, Q763M, R764V, P783D
From the text: (§1) If the 10 mutations discussed above drove the loss of function in vertebrate delta iGluRs, one might expect that the latter could be “reawakened” via active invertebrate delta iGluR-like mutations here. We therefore engineered mutant RatGluD2 iGluRs to contain at these positions the equivalent residues from starfish delta iGluRs. These mutants were RatGluD2^5x, containing Y613F, A686S, K694R, N720P, and P806D substitutions (pink in Fig. 6A), and RatGluD2^9x, additionally containing N763K, D753Q, Q786M, and R787V (cyan in Fig. 6A).
(§2) Fig. 6. AcaGluD-like mutations alter RatGluD2 receptor function. (A) D-serine bound RatGluD2 from X-ray structure PDB:2v3u ([13]). Selected amino acid residues are indicated, colored, shown as sticks, and labeled 5×, 9×, 10×, and/or Lc according to the multiple mutants they were incorporated into. 10× mutant included 10×, 9×, and 5× positions. 9× included 9× and 5×. 5× included only 5×. […] (B–E) Example current responses to different neurotransmitter ligands (30 mM) and to pore blocker pentamidine (Pent, 100 μM) in oocytes expressing indicated RatGluD2 mutants. The dashed line indicates zero current baseline. (F) Individual (dots) and mean (columns) responses to ligands in oocytes expressing indicated RatGluD2 mutants (n = 4 to 5).

RatGluD2^5x = target: T5, RatGluD2^5x (Rattus norvegicus, UniProt Q63226, A686S/K694R/N720P/P806D/Y613F); experiment: as above; assay type: cell-based; details: ligands 30 mM
T5 construct: expressed in transfected cells; host or cells: Xenopus laevis oocytes injected with mRNA
T5 sequence (Q63226 24-1007 Y613F/A686S/K694R/N720P/P806D): T2 sequence (Q63226 24-1007) with Y590F, A663S, K671R, N697P, P783D
From the text: as §1, §2

SMILES	inhibition of GABA-gated current (AcaGluD)	currents elicited when applied alone (AcaGluD)	enhancement of glutamate-gated currents (AcaGluD)	effect on oocytes expressing WT RatGluD2 (WT RatGluD2)	inhibition of constitutive currents (RatGluD2^Lc)	also measured
O=C(O)c1cc(=O)c2c(Cl)cc(Cl)cc2[nH]1 [5,7-dichlorokynurenic acid]	11 ± 5%					
C[C@@H](NCc1cc(Br)cc2[nH]c(=O)c(=O)[nH]c12)P(=O)(O)O [CGP-78608]	9 ± 3%					
N#Cc1cc2[nH]c(=O)c(=O)[nH]c2cc1[N+](=O)[O-] [CNQX]	81 ± 4%	elicited no currents	no effect	no effect	10 ± 0.2%	
O=[N+]([O-])c1cc2nc(O)c(O)nc2cc1[N+](=O)[O-] [DNQX]	53 ± 3%	elicited no currents	34 ± 3%	no effect	11 ± 0.2%	
N[C@@H](CCC(=O)O)C(=O)O [glutamate]						EC50 (AcaGluD; 0 Ca2+, n = 4): ~30 mM; maximum ligand-gated current amplitude (AcaGluD; in the presence of 1.8 mM Ca2+): 5.8 ± 0.6 µA; maximum ligand-gated current amplitude (AcaGluD; nominally Ca2+-free solutions): 0.28 ± 0.02 µA; current response to ligand (RatGluD2^9x): no responses; current response to ligand (RatGluD2^5x): no responses
